Measurements reported in US5780505A, “Substituted N-arylmethylamino derivatives of cyclobutene-3, 4-diones” (American Home Products Corporation, priority 1997, dated 1998).

Test system: Isolated Rat Bladder Strips
Assay: Inhibition of contractions in isolated rat bladder strips (KCl-enhanced contractile activity; smooth muscle relaxation)
Assay type: cell-based, Sprague-Dawley rats
Settings: for IC50 / percent contraction at 30 µM: 0.5 h; for IC50: isolated rat bladder strips, 15 mM additional KCl, 30 minute challenge, read-out: IC50 (50% inhibition of pre-drug contractile activity); for inhibition at 30 µM / percent contraction at 30 µM: Rattus norvegicus; for inhibition at 30 µM: read-out: Percent inhibition at 30 μM (I); for percent contraction at 30 µM: read-out: Percent contraction at 30 μM (C)
Description: The smooth muscle relaxing activity of the compounds of this invention was established in accordance with standard pharmaceutically accepted test procedures with representative compounds as follows:
Sprague-Dawley rats (150-200 g) are rendered unconscious by CO2 asphyxiation and then euthanized by cervical dislocation. The bladder is removed into warm (37 deg.C) physiological salt solution (PSS) of the following composition (mM): NaCl, 118.4; KCl, 4.7; CaCl2, 2.5; MgSO4, 4.7; H2 O, 1,2; NaHCO3, 24.9; KH2 PO4, 1,2; glucose, 11.1; EDTA, 0.023; gassed with […]; pH 7.4. The bladder is opened and then dut into strips 1-2 mm in width and 7-10 mm in length. The strips are subsequently suspended in a 10 mL tissue bath under an initial resting tension of 1.5 g. The strips are held in place by two surgical clips one of which is attached to a fixed hook while the other is attached to an isometric force transducer. […] The carbachol is then washed out and the tissue allowed to relax to its resting level of activity. Following a further 30 min period of recovery an additional 15 mM KCl are introduced into the tissue bath. This increase in KCl concentration results in a large increase in the amplitude of spontaneous contractions (and initiation of contractions in previously quiescent strips) superimposed upon a small increase in basal tone. Following stabilization of this enhanced level of contractile activity, incremental increases in the concentration of test compound or vehicle are introduced into the tissue bath. Contractile activity is measured for each compound or vehicle concentration during the last minute of a 30 minute challenge.
The isometric force developed by the bladder strips is measured using a […] to elicit 50% inhibition of pre-drug contractile activity (IC50 concentration) and is calculated from this concentration-response curve.

| IC50 | Compound | inhibition at 30 µM | percent contraction at 30 µM |
| --- | --- | --- | --- |
| – | CCc1cc(CNc2c(N[C@H](C)C(C)(C)C)c(=O)c2=O)ccc1C#N [Example 45, 4-[{3,4-Dioxo-2-(1,2,2-trimethyl-propylamino)-cyclobut-1-enylamino]-methyl}-2-ethyl-benzonitrile] | 25 ± 2.04% | – |
| 6100 ± 3800 nM | CCc1cc(CNc2c(NC(C)(C)C)c(=O)c2=O)ccc1C#N [Example 46, 4-[(2-tert-Butylamino-3,4-dioxo-cyclobut-1-enylamino)-methyl]-2-ethyl-benzonitrile] | – | – |
| 16700 ± 6200 nM | CCc1cc(Br)ccc1CNc1c(N[C@H](C)C(C)(C)C)c(=O)c1=O [Example 47, 3-(4-Bromo-2-ethyl-benzylamino)-4-(1,2,2-trimethyl-propylamino)-cyclobut-3-ene-1,2-dione] | – | – |
| 270 ± 80 nM | CCc1cc(Br)ccc1CNc1c(NC(C)(C)C)c(=O)c1=O [Example 48, 3-(4-Bromo-2-ethyl-benzylamino)-4-tert-butylamino-cyclobut-3-ene-1,2-dione] | – | – |
| 1000 ± 600 nM | CCc1cc(Br)ccc1CNc1c(NC(C)(C)CC)c(=O)c1=O [Example 49, 3-(4-Bromo-2-ethyl-benzylamino)-4-(1,1-dimethyl-propylamino)-cyclobut-3-ene-1,2-dione] | – | – |
| 105 ± 5 nM | CCc1cc(C#N)ccc1CNc1c(NC(C)(C)CC)c(=O)c1=O [Example 50, 4-[(1,1-Dimethyl-propylamino-3,4-dioxo-cyclobut-1-enylamino)-methyl]-3-ethyl-benzonitrile] | – | – |
| 5600 nM | Cc1cccc(C)c1CNc1c(N[C@H](C)C(C)(C)C)c(=O)c1=O [Example 51, 3-(2,6-Dimethyl-benzylamino)-4-(1,2,2-trimethyl-propylamino)-cyclobut-3-ene-1,2-dione] | 44% | 22 ± 3.2% |
| 5900 ± 1800 nM | Cc1cccc(C)c1CNc1c(NC(C)(C)C)c(=O)c1=O [Example 52, 3-tert-Butylamino-4-(2,6-dimethyl-benzylamino)-cyclobut-3-ene-1,2-dione] | – | – |
| 830 ± 660 nM | CCC(C)(C)Nc1c(NCc2c(C)cccc2C)c(=O)c1=O [Example 53, 3-(2,6-Dimethyl-benzylamino)-4-(1,1-dimethyl-propylamino)-cyclobut-3-ene-1,2-dione] | – | – |
| 17800 nM | Cc1cccc(C)c1CNc1c(NCC(F)(F)C(F)(F)F)c(=O)c1=O [Example 54, 3-(2,6-Dimethyl-benzylamino)-4-(2,2,3,3,3-pentafluoro-propylamino)-cyclobut-3-ene-1,2-dione] | 46% | – |
| 1500 ± 400 nM | Cc1cc(C#N)ccc1CNc1c(N[C@H](C)C(C)(C)C)c(=O)c1=O [Example 55, 4-{[3,4-Dioxo-2-(1,2,2-trimethyl-propylamino)-cyclobut-1-enylamino]-methyl}-3-methyl-benzonitrile] | – | – |
| 950 ± 750 nM | COc1cc(C#N)ccc1CNc1c(N[C@H](C)C(C)(C)C)c(=O)c1=O [Example 56, 4-{[3,4-Dioxo-2-(1,2,2-trimethyl-propylamino)-cyclobut-1-enylamino]-methyl}-3-methoxy-benzonitrile] | – | – |
| – | COc1cccc(C)c1CNc1c(N[C@H](C)C(C)(C)C)c(=O)c1=O [Example 57, 3-(2-Methoxy-6-methyl-benzylamino)-4-(1,2,2-trimethyl-propylamino)-cyclobut-3-ene-1,2-dione] | 29.3 ± 2.3% | 160% |
| 2300 ± 240 nM | CCc1cccc(C)c1CNc1c(NC(C)(C)C)c(=O)c1=O [Example 58, 3-tert-Butylamino-4-(2-ethyl-6-methyl-benzylamino)-cyclobut-3-ene-1,2-dione] | 25% | – |
| 1800 ± 600 nM | CC(C)(C)Nc1c(NCc2ccc(F)cc2C(F)(F)F)c(=O)c1=O [Example 59, 3-tert-Butylamino-4-(4-fluoro-2-trifluoromethyl-benzylamino)-cyclobut-3-ene-1,2-dione] | – | – |
| 1400 ± 400 nM | CC(C)(C)Nc1c(NCc2ccc(F)cc2Cl)c(=O)c1=O [Example 60, 3-tert-Butylamino-4-(2-chloro-4-fluoro-benzylamino)-cyclobut-3-ene-1,2-dione] | – | – |
| 1700 ± 1000 nM | C[C@@H](Nc1c(NCc2ccc(F)cc2C(F)(F)F)c(=O)c1=O)C(C)(C)C [Example 61, 3-(4-Fluoro-2-trifluoromethyl-benzylamino)-4-(1,2,2-trimethyl-propylamino)-cyclobut-3-ene-1,2-dione] | – | – |

| IC50 | Compound | inhibition at 30 µM | percent contraction at 30 µM |
| --- | --- | --- | --- |
| 220 ± 40 nM | CCC(C)(C)Nc1c(NCc2ccc(F)cc2F)c(=O)c1=O [Example 62, 3-(2,4-Difluoro-benzylamino)-4-(1,1-dimethyl-propylamino)-cyclobut-3-ene-1,2-dione] | – | – |
| 1500 ± 1000 nM | CCC(C)(C)Nc1c(NCc2ccc(F)cc2Cl)c(=O)c1=O [Example 63, 3-(2-Chloro-4-fluoro-benzylamino)-4-(1,1-dimethyl-propylamino)-cyclobut-3-ene-1,2-dione] | – | – |
| 4900 ± 2700 nM | CC(C)(C)Nc1c(NCc2cc(C(F)(F)F)ccc2F)c(=O)c1=O [Example 64, 3-tert-Butylamino-4-(2-fluoro-5-trifluoromethyl-benzylamino)-cyclobut-3-ene-1,2-dione] | – | – |
| 850 ± 410 nM | C[C@@H](Nc1c(NCc2cc(F)ccc2Cl)c(=O)c1=O)C(C)(C)C [Example 65, 3-(2-Chloro-5-fluoro-benzylamino)-4-(1,2,2-trimethyl-propylamino)-cyclobut-3-ene-1,2-dione] | – | – |
| 980 ± 400 nM | C[C@@H](Nc1c(NCc2cc(F)ccc2F)c(=O)c1=O)C(C)(C)C [Example 66, 3-(2.5-Difluoro-benzylamino)-4-(1,2,2-trimethyl-propylamino)-cyclobut-3-ene-1,2-dione] | – | – |
| 5300 ± 1200 nM | CC(C)(C)Nc1c(NCc2ccc(F)c(Cl)c2)c(=O)c1=O [Example 67, 3-tert-Butylamino-4-(3-chloro-4-fluoro-benzylamino)-cyclobut-3-ene-1,2-dione] | 47.7% | – |
| 2200 ± 800 nM | CC(C)(C)Nc1c(NCc2ccc(F)c(F)c2)c(=O)c1=O [Example 68, 3-tert-Butylamino-4-(3,4-difluoro-benzylamino)-cyclobut-3-ene-1,2-dione] | – | – |
| 5400 ± 2100 nM | C[C@@H](Nc1c(NCc2ccc(F)c(Cl)c2)c(=O)c1=O)C(C)(C)C [Example 69, 3-(3-Chloro-4-fluoro-benzylamino)-4-(1,2,2-trimethyl-propylamino)-cyclobut-3-ene-1,2-dione] | – | – |
| 1600 ± 770 nM | CCC(C)(C)Nc1c(NCc2ccc(F)c(F)c2)c(=O)c1=O [Example 70, 3-(3,4-Difluoro-benzylamino)-4-(1,1-dimethyl-propylamino)-cyclobut-3-ene-1,2-dione] | – | – |
| 2600 ± 400 nM | CC(C)(C)Nc1c(NCc2cc(F)cc(F)c2)c(=O)c1=O [Example 71, 3-tert-Butyl amino-4-(3,5-difluoro-benzylamino)-cyclobut-3-ene-1,2-dione] | – | – |
| 6500 ± 3600 nM | CC(C)(C)Nc1c(NCc2cc(F)cc(C(F)(F)F)c2)c(=O)c1=O [Example 72, 3-tert-Butylamino-4-(3-fluoro-5-trifluoromethyl-benzylamino)-cyclobut-3-ene-1,2-dione] | – | – |
| 23500 ± 8100 nM | CC(C)(C)Nc1c(NCc2cc(C(F)(F)F)cc(C(F)(F)F)c2)c(=O)c1=O [Example 73, 3-(3.5-Bis-trifluoromethyl-benzylamino)-4-tert-butylamino-cyclobut-3-ene-1,2-dione] | 35.8 ± 4.9% | – |
| 750 ± 450 nM | CCC(C)(C)Nc1c(NCc2cc(F)cc(F)c2)c(=O)c1=O [Example 74, 3-(3,5-Difluoro-benzylamino)-4-(1,1-dimethyl-propylamino)-cyclobut-3-ene-1,2-dione] | – | – |
| 1590 ± 270 nM | CC(Nc1c(NCc2ccc(C#N)cc2Cl)c(=O)c1=O)C(C)(C)F (stereo not shown) [Example 75, 3-Chloro-4-{[2-(2-fluoro-1,2-dimethyl-propylamino)-3,4-dioxo-cyclobut-1-enylamino]-methyl)-benzonitrile] | – | – |
| 2200 ± 950 nM | CCC(C)(C)Nc1c(N(Cc2ccc(C#N)cc2Cl)C(C)=O)c(=O)c1=O [Example 77, N-(2-Chloro-4-cyano-benzyl)-N-[2-(1,1-dimethyl-propylamino)-3,4-dioxo-cyclobut-1-enyl)-acetamide] | 25% | – |
| 2800 ± 1300 nM | CCCC(=O)N(Cc1ccc(C#N)cc1Cl)c1c(NC(C)(C)CC)c(=O)c1=O [Example 78] | 18 ± 6.5% | 28.5 ± 8.7% |
| 530 ± 230 nM | CCC(C)(C)Nc1c(NCc2ccc(C)cc2C)c(=O)c1=O [Example 79, 3-(2.4-Dimethyl-benzylamino)-4-(1,1-dimethyl-propylamino)-cyclobut-3-ene-1,2-dione] | – | – |

| Compound | IC50 | inhibition at 30 µM | percent contraction at 30 µM |
| --- | --- | --- | --- |
| CC(C)(C)Nc1c(NCc2ccc(C#N)c(Cl)c2)c(=O)c1=O [Example 43, 4-[(2-tert-Butylamino-3,4-dioxo-cyclobut-1-enylamino)-methyl]-2-chloro-benzonitrile] | 1100 ± 100 nM | – | – |
| CCC(C)(C)Nc1c(NCc2ccc(C#N)c(Cl)c2)c(=O)c1=O [Example 44, 2-Chloro-4-{[2-(1,1-dimethyl-propylamino]-3,4-dioxo-cyclobut-1-enylamino)-methyl}-benzonitrile] | 260 ± 15 nM | – | – |
